Results reported in PubChem BioAssay AID1259407 (Chemical Carcinogenesis Research Information System (CCRIS), 2018).
The source made the active and inactive calls. No rule for the calls is given here.

Test system: CCRIS mutagenicity, Ames/micronucleus/aberration tests
Assay: CCRIS mutagenicity studies
[1] = Test System: AMES SALMONELLA TYPHIMURIUM, Strain/Indicator: TA98, Metabolic Activation: NONE, Method: STANDARD PLATE
[2] = Test System: AMES SALMONELLA TYPHIMURIUM, Strain/Indicator: TA98, Metabolic Activation: RAT, LIVER, S-9, AROCLOR 1254, Method: STANDARD PLATE
[3] = Test System: AMES SALMONELLA TYPHIMURIUM, Strain/Indicator: TA100, Metabolic Activation: NONE, Method: STANDARD PLATE
[4] = Test System: AMES SALMONELLA TYPHIMURIUM, Strain/Indicator: TA100, Metabolic Activation: RAT, LIVER, S-9, AROCLOR 1254, Method: STANDARD PLATE

For `CC(=O)Nc1ccccc1`, the mutagenic call (Test System: AMES SALMONELLA TYPHIMURIUM, Strain/Indicator: TA97, Metabolic Activation: HAMSTER, LIVER, S-9, AROCLOR 1254 (10 OR 30%), Method: PREINCUBATION) was “inactive; negative”, the mutagenic call (Test System: AMES SALMONELLA TYPHIMURIUM, Strain/Indicator: TA97, Metabolic Activation: NONE, Method: PREINCUBATION) was “inactive; negative” and the mutagenic call (Test System: AMES SALMONELLA TYPHIMURIUM, Strain/Indicator: TA97, Metabolic Activation: RAT, LIVER, S-9, AROCLOR 1254 (10 OR 30%), Method: PREINCUBATION) was “inactive; negative”. For the same compound, the mutagenic call (Test System: AMES SALMONELLA TYPHIMURIUM, Strain/Indicator: TA98, Metabolic Activation: GUINEA PIG, LIVER, S-9, PCB, Method: PREINCUBATION) was “inactive; negative”, the mutagenic call (Test System: AMES SALMONELLA TYPHIMURIUM, Strain/Indicator: TA98, Metabolic Activation: HAMSTER, LIVER, S-9, AROCLOR 1254 (10 OR 30%), Method: PREINCUBATION) was “inactive; negative” and the mutagenic call (Test System: AMES SALMONELLA TYPHIMURIUM, Strain/Indicator: TA98, Metabolic Activation: HAMSTER, LIVER, S-9, PCB, Method: PREINCUBATION) was “inactive; negative”. For the same compound, the mutagenic call (Test System: AMES SALMONELLA TYPHIMURIUM, Strain/Indicator: TA98, Metabolic Activation: MOUSE, LIVER, S-9, PCB, Method: PREINCUBATION) was “inactive; negative”, the mutagenic call (Test System: AMES SALMONELLA TYPHIMURIUM, Strain/Indicator: TA98, Metabolic Activation: NONE, Method: PREINCUBATION) was “inactive; negative” and the mutagenic call (Test System: AMES SALMONELLA TYPHIMURIUM, Strain/Indicator: TA98, Metabolic Activation: RAT, LIVER, S-9, AROCLOR 1254 (10 OR 30%), Method: PREINCUBATION) was “inactive; negative”. The mutagenic call (Test System: AMES SALMONELLA TYPHIMURIUM, Strain/Indicator: TA98, Metabolic Activation: RAT, LIVER, S-9, PCB, Method: PREINCUBATION) was “inactive; negative”, the mutagenic call (Test System: AMES SALMONELLA TYPHIMURIUM, Strain/Indicator: TA100, Metabolic Activation: GUINEA PIG, LIVER, S-9, PCB, Method: PREINCUBATION) was “inactive; negative” and the mutagenic call (Test System: AMES SALMONELLA TYPHIMURIUM, Strain/Indicator: TA100, Metabolic Activation: HAMSTER, LIVER, S-9, AROCLOR 1254 (10 OR 30%), Method: PREINCUBATION) was “inactive; negative”. The mutagenic call (Test System: AMES SALMONELLA TYPHIMURIUM, Strain/Indicator: TA100, Metabolic Activation: HAMSTER, LIVER, S-9, PCB, Method: PREINCUBATION) was “inactive; negative”, the mutagenic call (Test System: AMES SALMONELLA TYPHIMURIUM, Strain/Indicator: TA100, Metabolic Activation: MOUSE, LIVER, S-9, PCB, Method: PREINCUBATION) was “inactive; negative” and the mutagenic call (Test System: AMES SALMONELLA TYPHIMURIUM, Strain/Indicator: TA100, Metabolic Activation: NONE, Method: PREINCUBATION) was “inactive; negative”. For the same compound, the mutagenic call (Test System: AMES SALMONELLA TYPHIMURIUM, Strain/Indicator: TA100, Metabolic Activation: RAT, LIVER, S-9, AROCLOR 1254 (10 OR 30%), Method: PREINCUBATION) was “inactive; negative”, the mutagenic call (Test System: AMES SALMONELLA TYPHIMURIUM, Strain/Indicator: TA100, Metabolic Activation: RAT, LIVER, S-9, PCB, Method: PREINCUBATION) was “inactive; negative” and the mutagenic call (Test System: AMES SALMONELLA TYPHIMURIUM, Strain/Indicator: TA1535, Metabolic Activation: HAMSTER, LIVER, S-9, AROCLOR 1254 (10 OR 30%), Method: PREINCUBATION) was “inactive; negative”. The mutagenic call (Test System: AMES SALMONELLA TYPHIMURIUM, Strain/Indicator: TA1535, Metabolic Activation: NONE, Method: PREINCUBATION) was “inactive; negative” and the mutagenic call (Test System: AMES SALMONELLA TYPHIMURIUM, Strain/Indicator: TA1535, Metabolic Activation: RAT, LIVER, S-9, AROCLOR 1254 (10 OR 30%), Method: PREINCUBATION) was “inactive; negative”.
In the case of `C=CC(O)c1ccc2c(c1)OCO2` (stereo not drawn), the mutagenic call (Test System: UDS HUMAN FIBROBLASTS, Strain/Indicator: THY INCORP (NON-S-PHASE), Metabolic Activation: NONE, Method: AUTORADIOGRAPHY) was “active; positive”.
With `O=c1[nH]cc2ccc3cccc4ccc1c2c34` the mutagenic call [1] was “inactive; negative”, the mutagenic call [2] was “inactive; negative” and the mutagenic call [3] was “inactive; negative”. The mutagenic call [4] was “inactive; negative”.
For `CC(=O)C1(c2ccccc2)CCNCC1`, the mutagenic call (Test System: AMES SALMONELLA TYPHIMURIUM, Strain/Indicator: TA98, Metabolic Activation: HAMSTER, LIVER, S-9, AROCLOR 1254, Method: STANDARD PLATE) was “inactive; negative”, the mutagenic call [1] was “inactive; negative” and the mutagenic call [2] was “inactive; negative”. The mutagenic call (Test System: AMES SALMONELLA TYPHIMURIUM, Strain/Indicator: TA100, Metabolic Activation: HAMSTER, LIVER, S-9, AROCLOR 1254, Method: STANDARD PLATE) was “inactive; negative”, the mutagenic call [3] was “inactive; negative” and the mutagenic call [4] was “inactive; negative”. For the same compound, the mutagenic call (Test System: AMES SALMONELLA TYPHIMURIUM, Strain/Indicator: TA1535, Metabolic Activation: HAMSTER, LIVER, S-9, AROCLOR 1254, Method: STANDARD PLATE) was “inactive; negative”, the mutagenic call (Test System: AMES SALMONELLA TYPHIMURIUM, Strain/Indicator: TA1535, Metabolic Activation: NONE, Method: STANDARD PLATE) was “inactive; negative” and the mutagenic call (Test System: AMES SALMONELLA TYPHIMURIUM, Strain/Indicator: TA1535, Metabolic Activation: RAT, LIVER, S-9, AROCLOR 1254, Method: STANDARD PLATE) was “inactive; negative”. For the same compound, the mutagenic call (Test System: AMES SALMONELLA TYPHIMURIUM, Strain/Indicator: TA1537, Metabolic Activation: HAMSTER, LIVER, S-9, AROCLOR 1254, Method: STANDARD PLATE) was “inactive; negative”, the mutagenic call (Test System: AMES SALMONELLA TYPHIMURIUM, Strain/Indicator: TA1537, Metabolic Activation: NONE, Method: STANDARD PLATE) was “inactive; negative” and the mutagenic call (Test System: AMES SALMONELLA TYPHIMURIUM, Strain/Indicator: TA1537, Metabolic Activation: RAT, LIVER, S-9, AROCLOR 1254, Method: STANDARD PLATE) was “inactive; negative”. For the same compound, the mutagenic call (Test System: AMES SALMONELLA TYPHIMURIUM, Strain/Indicator: TA1538, Metabolic Activation: HAMSTER, LIVER, S-9, AROCLOR 1254, Method: STANDARD PLATE) was “inactive; negative”, the mutagenic call (Test System: AMES SALMONELLA TYPHIMURIUM, Strain/Indicator: TA1538, Metabolic Activation: NONE, Method: STANDARD PLATE) was “inactive; negative” and the mutagenic call (Test System: AMES SALMONELLA TYPHIMURIUM, Strain/Indicator: TA1538, Metabolic Activation: RAT, LIVER, S-9, AROCLOR 1254, Method: STANDARD PLATE) was “inactive; negative”. For the same compound, the mutagenic call (Test System: MOUSE LYMPHOMA, Strain/Indicator: L5178Y (TK+/TK-), Metabolic Activation: NONE, Method: SUSPENSION/PLATE) was “inactive; negative. reevaluation of results: negative” and the mutagenic call (Test System: MOUSE LYMPHOMA, Strain/Indicator: L5178Y (TK+/TK-), Metabolic Activation: RAT, LIVER, S-9, AROCLOR 1254, Method: SUSPENSION/PLATE) was “inactive; negative. reevaluation of results: inconclusive”.
In the case of `Cc1cc2cccc3ccc4c5ccccc5cc1c4c32`, the mutagenic call (Test System: AMES SALMONELLA TYPHIMURIUM, Strain/Indicator: TA100, Metabolic Activation: RAT, NADPH-FORTIFIED HOMOGENIZED HEPATOCYTES, AROCLOR 1254, Method: PREINCUBATION) was “active; positive”.
